Each structure is given as a SMILES string.

PD-1/PD-L1, sequence (Q9NZQ7 19-238): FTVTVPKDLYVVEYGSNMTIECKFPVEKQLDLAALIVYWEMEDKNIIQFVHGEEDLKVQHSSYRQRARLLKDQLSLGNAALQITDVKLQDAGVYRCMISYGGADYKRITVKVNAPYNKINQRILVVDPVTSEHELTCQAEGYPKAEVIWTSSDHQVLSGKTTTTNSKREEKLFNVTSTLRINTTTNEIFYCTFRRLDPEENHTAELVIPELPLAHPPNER

For the test, the target named is PD-1/PD-L1 (Homo sapiens (Human), UniProt Q9NZQ7). The test can be described thus: PD-1/PD-L1 biochemical protein-protein interaction assay (ALPHA). The following applies: 0.3 nM His tagged PD-L1, 2.5 nM biotinylated Fc-PD-1, 60 minutes at 25° C., read-out: IC50 PD-L1-PD1. As to the method:
Binding of the protein pairs is measured using a bead based Amplified Luminescent Proximity Homogeneous Assay (ALPHA) platform. Binding of each protein pair results in proximity of the donor and acceptor beads which leads to an increase in ALPHA signal. […] Assays are performed in 25 mM Hepes (pH 7.4), 150 mM NaCl, 3.4 mM EDTA, 0.005% Tween 20, and 0.01% BSA. […] After an assay reaction time of 60 minutes at 25° C., binding was measured with addition of 20 μg/mL ALPHA assay acceptor beads (anti-His coated) and 20 µg/mL ALPHA assay donor beads (streptavidin coated). IC50 values were calculated from the fit of the dose-response curves to a four-parameter equation.
For orientation: IC50 means the concentration that inhibits the measured activity by half. On to `COc1nc(-c2cccc(-c3cccc(-c4cnc([C@H](C)N)c(OC)n4)c3Cl)c2Cl)cnc1CNC[C@@H]1CCC(=O)N1` [compound 316], for which the IC50 came to 0.17 nM. As for `OC1CN(Cc2cnc(-c3cccc(-c4cccc(-c5cnc(CN6CC(O)C6)cn5)c4Cl)c3Cl)cn2)C1` [compound 81], the IC50 was 4.18 nM.

Take `COc1nc(-c2cccc(-c3cccc(-c4cnc(CN5CC[C@@H](O)C5)c(OC)n4)c3Cl)c2Cl)cnc1CN` [compound 587]: the IC50 is 0.515 nM. As for `COc1nc(-c2cccc(-c3cccc(-c4cnc(CN5CC(C)(O)C5)c(OC)n4)c3Cl)c2Cl)cnc1CNC[C@@H]1CCC(=O)N1` [compound 16], the figure is 0.173 nM; as for `COc1nc(-c2cccc(-c3cccc(-c4cnc(CN[C@@H](C)[C@H]5CCC(=O)N5)c(OC)n4)c3Cl)c2Cl)cnc1CN[C@@H](C)[C@H]1CCC(=O)N1` [compound 317], 0.22 nM; as for `COc1nc(-c2cccc(-c3cccc(-c4cnc(CNC[C@@H]5CCC(=O)N5)c(OC)n4)c3Cl)c2Cl)cnc1CNCCS(=O)(=O)O` [compound 42], 3.42 nM. As for `COc1nc(-c2cccc(-c3cccc(-c4cnc(CNC[C@@H]5CCC(=O)N5)c(OC)n4)c3Cl)c2Cl)cnc1CNCc1cnn(CCO)c1` [compound 26], the IC50 is 0.06 nM. Regarding `COc1nc(-c2cccc(-c3cccc(-c4cnc(CN5CC6(CNC(=O)C6)C5)c(OC5CC5)n4)c3Cl)c2Cl)ccc1CN1CC2(CNC(=O)C2)C1` [compound 637], the IC50 was 0.134 nM. The result for `COc1nc(-c2cccc(-c3cccc(-c4cnc(CNC[C@@H]5CCC(=O)N5)c(OC)n4)c3Cl)c2Cl)cnc1CNCCc1cn[nH]c1` [compound 49] reads 0.356 nM; that for `CN(C)c1nc(-c2cccc(-c3cccc(-c4cnc(CN5CC(O)C5)c(Cl)n4)c3Cl)c2Cl)cnc1CN1CC(O)C1` [compound 100], 0.146 nM. The result for `COc1nc(-c2cccc(-c3cccc(-c4cnc(C5=NCCN5)c(OC)n4)c3Cl)c2Cl)cnc1C1=NCCN1` [compound 141] reads 0.064 nM; that for `COc1nc(-c2cccc(-c3cccc(-c4cnc(CN5CC(C)(N)C5)c(OC)n4)c3Cl)c2Cl)cnc1CNC[C@@H]1CCC(=O)N1` [compound 622], 0.26 nM; that for `COc1nc(-c2cccc(-c3cccc(-c4cnc(CN5CC[C@H](O)[C@H](F)C5)c(OC)n4)c3Cl)c2Cl)cnc1CNC[C@@H]1CCC(=O)N1` [compound 280], 0.18 nM.

As for `CSc1nc(-c2cccc(-c3cccc(-c4cnc(CN5CC6(CCC(=O)N6)C5)c(SC)n4)c3Cl)c2Cl)cnc1CN1CC2(CCC(=O)N2)C1` [compound 90], the IC50 is 0.156 nM. As for `COc1nc(-c2cccc(-c3cccc(-c4cnc(CN5CCC(F)(F)CC5)c(OC)n4)c3Cl)c2Cl)cnc1CNC[C@@H]1CCC(=O)N1` [compound 282], the figure is 1.57 nM; as for `COc1nc(-c2cccc(-c3cccc(-c4cnc(CNC5CC5)c(OC)n4)c3Cl)c2Cl)cnc1CNC[C@@H]1CCC(=O)N1` [compound 184], 0.763 nM. On to `COc1nc(-c2cccc(-c3cccc(-c4cnc(CN5CCC(C)(O)C5)c(OC)n4)c3Cl)c2Cl)cnc1CNC[C@@H]1CCC(=O)N1` (some centres unmarked) [compound 174], for which the IC50 worked out at 0.219 nM.

In the case of `COc1nc(-c2cccc(-c3cccc(-c4cnc(CN5CC(O)C5)c(OC)n4)c3Cl)c2Cl)cnc1CN` [compound 594], the IC50 amounted to 0.12 nM.

On to `COc1nc(-c2cccc(-c3cccc(-c4cnc5c(CN6CC7(CNC(=O)C7)C6)cn(C)c5n4)c3Cl)c2Cl)cnc1CN1CC2(CNC(=O)C2)C1` [compound 607], for which the IC50 was found to be 0.064 nM. The result for `COc1nc(-c2cccc(-c3cccc(-c4cnc(CN5CC(OC)C5)c(OC)n4)c3Cl)c2Cl)ccc1CN1CC(OC)C1` [compound 438, 5-(2,2′-dichloro-3′-(6-methoxy-5-((3-methoxyazetidin-1-yl)methyl)pyridin-2-yl)-[1,1′-biphenyl]-3-yl)-3-methoxy-2-((3-methoxyazetidin-1-yl)methyl)pyrazine] reads 1.34 nM. The result for `COc1nc(-c2cccc(-c3cccc(-c4cnc(CNC[C@@H]5CCC(=O)N5)c(OC)n4)c3Cl)c2Cl)cnc1CNC[C@H]1CCOC1` [compound 296] reads 0.222 nM; that for `COC[C@H]1CCCN1Cc1ncc(-c2cccc(-c3cccc(-c4cnc(CNC[C@@H]5CCC(=O)N5)c(OC)n4)c3Cl)c2Cl)nc1OC` [compound 21], 0.525 nM. As for `CCNC(=O)CNCc1ncc(-c2cccc(-c3cccc(-c4cnc(CNC[C@@H]5CCC(=O)N5)c(OC)n4)c3Cl)c2Cl)nc1OC` [compound 578], the figure is 0.182 nM. Regarding `COc1nc(-c2cccc(-c3cccc(-c4cnc(CN[C@H]5C[C@@H](S(C)(=O)=O)C5)c(OC)n4)c3Cl)c2Cl)cnc1CNC[C@@H]1CCC(=O)N1` [compound 358], the IC50 worked out at 0.141 nM. As for `COc1nc(-c2cccc(-c3cccc(-c4cnc(CNCC5(O)CC5)c(OC)n4)c3Cl)c2Cl)cnc1CNC[C@@H]1CCC(=O)N1` [compound 426], the figure is 0.273 nM.

For `COc1nc(-c2cccc(-c3cccc(-c4cnc(CN(CCO)CC(F)(F)F)c(OC)n4)c3Cl)c2Cl)cnc1CNC[C@@H]1CCC(=O)N1` [compound 258], the IC50 turned out to be 0.673 nM. The result for `COc1nc(-c2cccc(-c3cccc(-c4cnc(C5=NC[C@H](C)N5)c(OC)n4)c3Cl)c2Cl)cnc1CNC[C@@H]1CCC(=O)N1` [compound 646] reads 0.064 nM; that for `COc1nc(-c2cccc(-c3cccc(-c4cnc(CN5CC[C@H](C(C)(C)O)C5)c(OC)n4)c3Cl)c2Cl)cnc1CN1CC[C@H](C(C)(C)O)C1` [compound 500], 0.232 nM. The result for `COc1nc(-c2cccc(-c3cccc(-c4cnc(CN5CC[C@@H](CO)C5)c(OC)n4)c3F)c2Cl)ccc1CN1CC[C@@H](CO)C1` [compound 616] reads 0.069 nM; that for `COc1nc(-c2cccc(-c3cccc(-c4cnc(CN5CC[C@H](O)[C@@H](F)C5)c(OC)n4)c3Cl)c2Cl)cnc1CNC[C@@H]1CCC(=O)N1` [compound 277], 0.652 nM. As for `CCNc1nc(-c2cccc(-c3cccc(-c4cnc(CN5CC6(C5)CN(C(C)=O)C6)c(NCC)n4)c3Cl)c2Cl)cnc1CN1CC2(C1)CN(C(C)=O)C2` [compound 65], the IC50 is 0.165 nM. `COC1CN(Cc2ncc(-c3cccc(-c4cccc(-c5cnc(CN6CC(OC)C6)c(SC)n5)c4Cl)c3Cl)nc2SC)C1` [compound 87]: the IC50 stood at 5.88 nM. As for `COc1nc(-c2cccc(-c3cccc(-c4cnc(CNCC5CCNC5=O)c(OC)n4)c3Cl)c2Cl)cnc1CNCC1CCNC1=O` (centres unmarked) [compound 661], the figure is 0.064 nM. `COc1nc(-c2cccc(-c3cccc(-c4cnc(Cn5c(C)ccc5C)c(OC)n4)c3Cl)c2Cl)cnc1CNC[C@@H]1CCC(=O)N1` [compound 352]: the IC50 is 4.63 nM.

On to `COc1nc(-c2cccc(-c3cccc(-c4cnc(CN5CC(O)C5)c(OC)n4)c3Cl)c2F)cnc1CN1CC(O)C1` [compound 2], for which the concentration for half-maximal inhibition (IC50) worked out at 0.135 nM. In the case of `COc1nc(-c2cccc(-c3cccc(-c4cnc(CNC[C@@H]5CCC(=O)N5)c(OC)n4)c3Cl)c2Cl)ccc1CN1CCC(C(N)=O)CC1` [compound 163], the IC50 is 0.177 nM. Consider `COc1nc(-c2cccc(-c3cccc(-c4cnc(CN5CCC(C)(OC)C5)c(OC)n4)c3Cl)c2Cl)cnc1CNC[C@@H]1CCC(=O)N1` (some centres unmarked) [compound 443], for which the IC50 was found to be 0.246 nM. Take `COc1nc(-c2cccc(-c3cccc(-c4cnc(CN5CC6(CCC(=O)N6)C5)c(OC)n4)c3Cl)c2Cl)ccc1C1=NCCN1` [compound 115]: the IC50 is 0.115 nM.

Source of the values: patent publication US10710986B2, “PD-1/PD-L1 inhibitors” (Gilead Sciences, Inc., priority 2018, dated 2020).
